Read-outs that look alike come from different tables or passages of the source. Where a SMILES comes first, the peptide text is derived from it. The star is where a group is joined. AspCH2OBz(2,6-Me2) = Cc1cccc(C)c1C(=O)OCC(=O)[C@H](CC(=O)O)N*
What was measured:
caspase-2 [1] = molecular target: T1, caspase-2 (Homo sapiens, UniProt P42575); assay: Determination of Ki and IC50 inhibition parameters; type: biochemical; set-up: made in house; conditions: for Ki: Morrison equation, 15 min pre-incubation with inhibitor at 37 C; for IC50: calculated as IC50=Ki×(1+[S]/Km), substrate NH-Idc-hGlu-Thr(Bzl)-Ser-Asp-ACC 50 uM
T1 sequence (P42575 170-325 limits assumed): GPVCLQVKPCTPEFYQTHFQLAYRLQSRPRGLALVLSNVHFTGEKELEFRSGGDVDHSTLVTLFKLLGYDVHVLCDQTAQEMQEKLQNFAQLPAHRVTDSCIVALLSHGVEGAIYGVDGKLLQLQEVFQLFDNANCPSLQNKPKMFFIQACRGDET
T1 sequence (P42575 348-452 limits assumed): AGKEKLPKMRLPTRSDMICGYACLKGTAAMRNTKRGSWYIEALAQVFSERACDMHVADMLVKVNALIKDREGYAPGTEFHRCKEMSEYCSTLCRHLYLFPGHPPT
Description: (§1) The detailed protocol for the expression and purification of human apoptotic caspases can be found elsewhere (Stennicke, 1999).
(§2) The measurement of Ki and IC50 inhibition parameter of synthesized inhibitors towards caspases-2, -3, and -8 was performed using a fMax spectrofluorimeter (Molecular Devices, Sunnyvale, CA, USA) operating in fluorescence kinetic mode in 96-well Corning (Corning, NY, USA) plates. Before kinetic analysis, all caspases were active site-titrated using the zVAD-fmk inhibitor (Cayman Chemical Company, Cat No. 14467). The caspases assay buffer was 10% w/v sucrose, […], 20 mM Pipes, 10 mM NaCl, 1 mM EDTA, and 10 mM DTT (pH=7.3). Buffers were prepared at room temperature, and all kinetic assays were performed at 37° C. The Ki parameter was measured using the Morrison equation (Copeland, 2000). For each caspase, an appropriate ACC-fluorogenic substrate was used to monitor substrate hydrolysis: NH-Idc-hGlu-Thr(Bzl)-Ser-Asp-ACC (50 uM) for caspase-2, Ac-DEVD-ACC (100 uM) for caspase-3 and Ac-LEHD-ACC (100 uM) for caspase-8. The ACC fluorescence was monitored using 355 nm (excitation) and 460 nm (emission) wavelengths. To meet the criteria for reversible inhibitor kinetics, the lowest inhibitor concentration was at least 4-fold higher that the caspase concentration in the assay. The caspase (60 uL) was first pre-warmed in the assay buffer in the 96-well plate for 15 min at 37 C and then pre-incubated with the inhibitor (20 uL) for another 15 min at 37 C. Next, the substrate (20 uL) was added to the enzyme-inhibitor mixture and the progress of reaction (ACC release) was monitored over time. The Ki parameter was calculated from Morrison equation, and the IC50 parameter was calculated using the formula: IC50=Ki×(1+[S]/Km], where the [S] is substrate concentration used in the assay and Km is a Michaelis-Menten constant for a substrate. All the measurements were performed at least three times and the data was analyzed using GraphPad Prism 7 software.

caspase-3 [2] = molecular target: T2, caspase-3 (Homo sapiens, UniProt P42574); assay: Determination of kobs/I inhibition parameter; type: biochemical; conditions: pH 7.3; pseudo-first-order conditions; substrate Ac-DEVD-ACC 100 uM; 37° C.
T2 construct: made in house
T2 sequence (P42574 29-175 limits assumed): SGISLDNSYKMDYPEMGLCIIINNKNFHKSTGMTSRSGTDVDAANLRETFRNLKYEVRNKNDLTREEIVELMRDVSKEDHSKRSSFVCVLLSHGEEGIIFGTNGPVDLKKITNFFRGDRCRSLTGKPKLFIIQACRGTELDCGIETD
T2 sequence (P42574 176-277 limits assumed): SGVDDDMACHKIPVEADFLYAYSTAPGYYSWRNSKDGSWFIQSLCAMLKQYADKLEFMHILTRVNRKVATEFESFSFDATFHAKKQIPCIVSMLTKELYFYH
Description: (§3) The measurement of kobs/l inhibition parameter (second order rate of enzyme inhibition) of synthesized inhibitors towards caspases-2, -3, and -8 was performed using a fMax spectrofluorimeter (Molecular Devices, Sunnyvale, CA, USA) operating in fluorescence kinetic mode in 96-well Corning (Corning, NY, USA) plates. Before kinetic analysis, all caspases were active site-titrated using the zVAD-fmk inhibitor (Cayman Chemical Company, Cat No. 14467). The caspases assay buffer was 10% w/v sucrose, […], 20 mM Pipes, 10 mM NaCl, 1 mM EDTA, and 10 mM DTT (pH=7.3). Buffers were prepared at room temperature, and all kinetic assays were performed at 37° C. The kobs/l parameter was measured under pseudo-first-order kinetic conditions ([I]>>[E]). […] The ACC fluorescence was monitored using 355 nm (excitation) and 460 nm (emission) wavelengths. […] At the same time in a separate tube, the caspase was preincubated in assay buffer at 37 C, and after 15 min, the enzyme was added to wells (60 uL per well, total reaction volume 100 uL) and the fluorescence was monitored for 30 min, starting immediately. Second-order rate of inhibition (Kobs/l) was determined in at least three independent experiments and presented as an average value. […]

caspase-8 [3] = molecular target: T3, caspase-8 (Homo sapiens, UniProt Q14790); assay: Determination of kobs/I inhibition parameter; type: biochemical; conditions: pH 7.3; pseudo-first-order conditions; substrate Ac-LEHD-ACC 100 uM; 37° C.
T3 construct: made in house
Description: as §3

caspase-8 [4] = molecular target: T3, caspase-8; assay: Determination of Ki and IC50 inhibition parameters; type: biochemical; conditions: for Ki: Morrison equation, 15 min pre-incubation with inhibitor at 37 C
caspase-3 [5] = molecular target: T2, caspase-3; assay: Determination of Ki and IC50 inhibition parameters; type: biochemical; conditions: for Ki: Morrison equation, 15 min pre-incubation with inhibitor at 37 C
Description: as §1, §2

caspase-2 [6] = molecular target: T1, caspase-2; assay: Determination of kobs/I inhibition parameter; type: biochemical; set-up: made in house; conditions: pH 7.3; pseudo-first-order conditions; substrate NH-Idc-hGlu-Thr(Bzl)-Ser-Asp-ACC 50 uM; 37° C.
Description: as §3

caspase-2 [7] = molecular target: T1, caspase-2; conditions: state of the art; cited from earlier work
HepG2 cells = assay: Intracellular lipid accumulation, in vitro cellular model of NASH; type: cell-based; set-up: inhibition of intracellular lipid-accumulation: dose or concentration left out as unconfirmed; conditions: for inhibition of intracellular lipid-accumulation: NASH-triggered HepG2 cultures, FIG. 4
Description: HepG2 cells (50.000 cells/well) were plated into 12-multiwell culture dishes on coverslips previously coated with collagen (2 mg/mL collagen solution (BD Biosciences) in PBS incubated at 37° C. for 30 min).
Cells were treated with a “NASH cocktail”: DMEM containing 4.5 mg/mL glucose supplemented with 10% (v/v) FBS, 1% (v/v) PenStrep and 2 mM L-glutamine plus fatty acids (100 μM sodium oleate and 100 μM palmitic acid), 100 nM insulin (all Sigma-Aldrich) and inflammatory cytokines (50 ng/ml tumor necrosis factor, TNF-α (Prospec), 25 ng/ml interleukin IL-1β (Petroteck) and 8 ng/ml transforming growth factor, TGF-β (R&D Systems)). The cells were exposed for 24h to this “NASH cocktail” and KIN compounds were concomitantly added at different concentrations.
At the end of treatments cells were washed with PBS and incubated with staining solution (BODIPY493/503 (Thermo Fisher Scientific) for 15 min at 37° C. Then cells were washed three times with PBS and were fixed in 4% PFA for 30 min at room temperature. After three additional washes with PBS, coverslips were mounted onto glass slides with a drop of Prolong® Gold antifade reagent (Invitrogen) with DAPI overnight at room temperature. Fluorescence micrographs were taken using an Axoimagen M1 microscope (Zeiss, Oberkochen, Germany) and fluorescent signals (DAPI and BODIPY) were quantified using ImageJ (n=10). The intracellular lipid load was calculated as a function of BODIPY™ 493/503 lipid dye area.
An in vitro cellular model of NASH was used to test the efficacy of caspase-2 inhibitors preventing intracellular accumulation of lipids. In this model, HepG2 cells are exposed for 24 h to “NASH conditions” including lipogenic (glucose, insulin, fatty acids) and inflammatory and pro-apoptotic (TNF-α, IL-1β, and TGF-β) triggers. […] This model has shown to correlate with human NASH pathology (Boeckmans et al. 2019).

caspase-2 [8] = molecular target: T1, caspase-2; conditions: Poreba et al. (2019); cited from earlier work
caspase-2 [9] = molecular target: T1, caspase-2; assay: Kinetic assay of substrates NH-Idc-P4-P3-Dab-Asp-ACC (Example 4); type: biochemical; conditions: substrate 10 μM; caspase-2 10 nM; 37° C.
Description: Prior to kinetic assay, substrates (several L) were diluted in DMSO to the […] (working concentration). Next, 1 μL of such substrate was spot into the well of 96-well plate following by the addition of […] of caspase-2 in buffer. Immediately after the enzyme was added, the plate was placed in fluorescence plate reader and the fluorescence was measured over the time in a kinetic mode (excitation 355 nm, emission 460 nm). The liberation of fluorescence was carried out for 30 minutes, and only linear portion of the plot was taken for analysis to calculate the rate of the reaction. The rate of best cleaved substrate was set to 100% and all other substrates were adjusted accordingly (cleavage rate, %). The final concentration of substrate was 10 μM, and the final concentration of caspase-2 was 10 nM. The caspase-2 assay buffer was 20 mM Pipes, 100 mM NaCl, sucrose 10% (w/v), 10 mM DTT, pH 7.2-7.4. The caspase-2 was preincubated in buffer at 37° C. for 15 min before added to the substrate.

[10] = calculated as IC50=Ki×(1+[S]/Km), substrate Ac-LEHD-ACC 100 uM
[11] = calculated as IC50=Ki×(1+[S]/Km), substrate Ac-DEVD-ACC 100 uM

T3 sequence (Q14790 217-374 limits assumed): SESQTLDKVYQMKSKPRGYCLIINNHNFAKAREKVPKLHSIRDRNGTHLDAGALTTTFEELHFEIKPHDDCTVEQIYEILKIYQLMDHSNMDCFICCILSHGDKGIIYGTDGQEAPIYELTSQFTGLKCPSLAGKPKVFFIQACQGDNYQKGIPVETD
T3 sequence (Q14790 385-479 limits assumed): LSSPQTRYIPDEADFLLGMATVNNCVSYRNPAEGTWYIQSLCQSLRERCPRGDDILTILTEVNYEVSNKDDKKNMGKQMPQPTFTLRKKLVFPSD

Molecule: CC(=O)N[C@H](C(=O)N[C@@H](CC(=O)O)C(=O)N[C@H](C(=O)N[C@@H](C)C(=O)N[C@@H](CC(=O)O)C(=O)COC(=O)c1c(C)cccc1C)C(C)C)C(C)C [Ac-Val-Asp-Val-Ala-Asp-AOMK, reference compound] (Ac-VDVA-{AspCH2OBz(2,6-Me2)})
- Ki (caspase-2 [1]): 0.4 nM
- IC50 (caspase-2 [1]): 4.9 nM
- kinact/KI (caspase-3 [2]): 1.36e+06 M⁻¹ s⁻¹
- kinact/KI (caspase-8 [3]): 98.4 M⁻¹ s⁻¹
- IC50 (caspase-8 [4]): 16 nM
- Ki (caspase-8 [4]): 2.2 nM
- IC50 (caspase-3 [5]): 0.1 nM
- kinact/KI (caspase-2 [6]): 643 M⁻¹ s⁻¹

Molecule: Ac-VDVAD-aldehyde
- potency against caspase-3 compared with caspase-2 (caspase-2 [7]): more potent against caspase-3 than to caspase-2

Molecule: NH-Idc-hGlu-Thr(Bzl)-Dab-Asp-AOMK [Compound 2]
- inhibition of intracellular lipid-accumulation (HepG2 cells): significantly higher percentage of inhibition than NH-23-C2 compound
- Ki (caspase-2 [1]): 1.1 nM
- IC50 (caspase-2 [1]): 12 nM
- Ki (caspase-8 [4]): 209 nM
- IC50 (caspase-8 [4]; [10]): 1540 nM
- Ki (caspase-3 [5]): 29.3 nM
- IC50 (caspase-3 [5]; [11]): 193 nM

Molecule: NH-Idc-hGlu-Thr(Bzl)-Lys-Asp-AOMK [Compound 1]
- efficacy inhibiting intracellular lipid accumulation (HepG2 cells; HepG2 under NASH conditions, inhibitors at 10, 20 and […], FIG. 5): better efficacy than NH-23-C2
- inhibition of intracellular lipid-accumulation (HepG2 cells): significantly higher percentage of inhibition than NH-23-C2 compound
- Ki (caspase-2 [1]): 0.8 nM
- IC50 (caspase-2 [1]): 8.8 nM
- Ki (caspase-8 [4]): 6.7 nM
- IC50 (caspase-8 [4]; [10]): 49.8 nM
- Ki (caspase-3 [5]): 3.8 nM
- IC50 (caspase-3 [5]; [11]): 24.8 nM

Molecule: NH-Idc-hGlu-Thr(Bzl)-Orn-Asp-AOMK [Compound 3]
- inhibition of intracellular lipid-accumulation (HepG2 cells): significantly higher percentage of inhibition than NH-23-C2 compound
- Ki (caspase-2 [1]): 0.7 nM
- IC50 (caspase-2 [1]): 7.4 nM
- Ki (caspase-8 [4]): 43.3 nM
- IC50 (caspase-8 [4]; [10]): 320 nM
- Ki (caspase-3 [5]): 13.8 nM
- IC50 (caspase-3 [5]; [11]): 91 nM

Molecule: NH-Idc-hGlu-Thr(Bzl)-Ser-Asp-AOMK [reference compound]
- Caspase-2 inhibitory activity (caspase-2 [8]): highest Caspase-2 inhibitory activity among the assayed compounds
- selectivity for Caspase-3 (caspase-2 [8]): no selectivity for Caspase-3
- selectivity for Caspase-8 (caspase-2 [8]): limited selectivity for Caspase-8
- Ki (caspase-2 [1]): 0.7 nM
- IC50 (caspase-2 [1]): 7.9 nM
- Ki (caspase-8 [4]): 6.2 nM
- IC50 (caspase-8 [4]; [10]): 46.2 nM
- Ki (caspase-3 [5]): 1.1 nM
- IC50 (caspase-3 [5]; [11]): 7.1 nM

Molecule: NH-Idc-hLeu-Thr(Bzl)-Dab-Asc-ACC
- RFU/s, %, average (cleavage rate, best substrate set to 100%) (caspase-2 [9]): 0.0%

Reference: US20250270255A1, “CASPASE-2 INHIBITOR COMPOUNDS” (KINTSUGI THERAPEUTICS S.L., priority 2021, published 2025)
